The values below come from paper PMC5537066, “Dimerization facilitates the conformational transitions for bacterial phosphotransferase enzyme I autophosphorylation in an allosteric manner” (FEBS Open Bio, 2017).

Holding throughout (experiment): isothermal titration calorimetry
What all share (type): binding
Holding throughout (details): read-out: K D (μS)

In experiment [1] the target is T1, EIA^ΔEINα (G356S) (Escherichia coli, UniProt P08839, DEL22-145/G356S/H189A).
T1 construct: gene ptsI; EI(1-21, 146-575), EINalpha subdomain deleted; pET11 or pET15b with N-terminal His6 tag; E. coli BL21star(DE3)
The text has this:
isothermal titration calorimetry on EIA^ΔEINα (G356S)

For experiment [2], the target named is T2, EIC (EIC(G356S)) (Escherichia coli, UniProt P08839, G356S).
T2 construct: gene ptsI; pET11 or pET15b with N-terminal His6 tag; E. coli BL21star(DE3)

The target of experiment [3] is T3, EI (EIA, EIA(G356S)) (Escherichia coli, UniProt P08839, G356S/H189A).
T3 construct: gene ptsI; full length 1-575; pET11 or pET15b with N-terminal His6 tag; E. coli BL21star(DE3); dimer with PEP
The text has this:
isothermal titration calorimetry on EI (EIA, EIA(G356S))

Molecules are shown by their SMILES.

For `C=C(OP(=O)(O)O)C(=O)O` [PEP], the Kd was 1.3 ± 0.1 µM in experiment [1], 310 ± 100 µM in experiment [2] and 14 ± 0.9 µM in experiment [3].
